Tests used:
PKCβI = conditions: reported selectivity profile, ref not given; cited from earlier work
PKCγ = conditions: reported selectivity profile, ref not given; cited from earlier work
PKCβ2 = conditions: reported selectivity profile, ref not given; cited from earlier work
A2BAR [1] = biological target: T1, A2BAR (Homo sapiens, UniProt P29275); test: cAMP accumulation assay in HEK293-A2B cells; assay type: cell-based; conditions: HEK293-A2B cells
T1 sequence (P29275 1-332): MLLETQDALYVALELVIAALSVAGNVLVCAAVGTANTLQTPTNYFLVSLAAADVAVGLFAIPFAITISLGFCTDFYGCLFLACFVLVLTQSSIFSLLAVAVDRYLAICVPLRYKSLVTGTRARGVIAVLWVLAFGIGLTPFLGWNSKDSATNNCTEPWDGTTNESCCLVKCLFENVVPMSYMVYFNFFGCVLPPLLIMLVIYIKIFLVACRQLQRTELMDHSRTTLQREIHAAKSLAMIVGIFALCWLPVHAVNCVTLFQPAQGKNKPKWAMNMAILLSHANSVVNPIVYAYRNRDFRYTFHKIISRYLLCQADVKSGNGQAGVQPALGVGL

A2BAR [2] = biological target: T1, A2BAR; test: cAMP accumulation assay in naive HEK293 cells; assay type: cell-based; conditions: naive HEK293 cells, inhibitor 30 nM, PMA 1 μM, BAY 10 μM
PKCβ = conditions: reported selectivity profile, ref not given; cited from earlier work

Compound | IC50 (PKCβI) [nM] | IC50 (PKCγ) [nM] | IC50 (PKCβ2) [nM] | effect on PKC-induced A2BAR activation (cAMP) (A2BAR [1]; inhibitor 30 nM) | effect on PKC-induced A2BAR activation (cAMP) (A2BAR [1]; inhibitor 1 μM) | effect on PKC (PMA)-induced enhancement of BAY-induced cAMP accumulation (A2BAR [2]) | IC50 (PKCβ) [nM]
CN(C)C[C@@H]1CCn2cc(c3ccccc32)C2=C(C(=O)NC2=O)c2cn(c3ccccc23)CCO1 [LY333531] | […] | […] | […] | lack of inhibition | significant inhibition | did not inhibit PMA-induced enhancement | –
Cn1cc(C2=C(c3cn(C4CCN(Cc5ccccn5)CC4)c4ccccc34)C(=O)NC2=O)c2ccccc21 [enzastaurin] | – | […] | – | – | – | did not inhibit PMA-induced enhancement | […]

From publication PMC10316653 (iScience, 2023)
